Source: patent publication US11116726B2, “Echinomycin formulation, method of making and method of use thereof” (CHILDREN'S RESEARCH INSTITUTE, CHILDREN'S NATIONAL MEDICAL …, priority 2015, dated 2021)

How the values were obtained:
[1] = Liposomal echinomycin toxicity in mice (body weight, survival); assay type: in vivo, NSG mice; conditions: 1 mg/kg single i.v.
Experimental: FIG. 4. Comparison of toxicity and efficacy for liposomal vs. free echinomycin. (Panel A) Body weight change in female NSG mice receiving a therapeutic cycle of liposomal echinomycin, PBS echinomycin (20% DMSO in PBS), or equivalent dosage of empty liposomal vehicle. Mice were treated with 250 μg/kg of liposomal (n=7) or free (n=7) echinomycin, or vehicle equivalent (n=4), by i.v. once every other day for a total of 3 doses). (Panel B) Survival of NSG mice administered single i.v. injection of 1 mg/kg liposomal or free echinomycin, or equivalent dosage of empty liposomal vehicle.
To test the toxicity of liposomal echinomycin in mice, a therapeutic cycle of echinomycin was administered at a dose of 250 μg/kg, (liposomal-formulated, non-liposomal-formulated, or equivalent dosage of empty liposomal vehicle) by i.v. injection, every other day for a total of 3 doses. Body weights of the mice were monitored throughout this period.

[2] = Intravenous tolerability / LD50 in mice; conditions: mouse, in vivo
[3] = Plasma pharmacokinetics by mass spectrometry after single i.v. injection; assay type: in vivo, mice; conditions: 0.1 mg/kg single i.v.
Experimental: FIG. 5. Comparison of pharmacokinetics for liposomal vs. free echinomycin. Serum plasma levels of echinomycin detected by MS following single dose i.v. administration of 0.1 mg/kg liposomal echinomycin or free echinomycin
PEG shields liposomes from rapid uptake by the RES and provides steric stabilization to the liposome particles. To measure the prolonged circulation of liposomal echinomycin in the bloodstream compared to free echinomycin, the pharmacokinetics of both formulations were evaluated by detecting echinomycin levels in the plasma by mass spectrometry following single i.v. injections of 0.1 mg/kg of liposomal echinomycin or free echinomycin in mice (FIG. 5).

[4] = Echinomycin concentration in SUM 159 breast tumor tissue after single i.v. injection; assay type: in vivo, NSG mice; conditions: 0.1 mg/kg single i.v., SUM 159 tumor
Experimental: FIG. 6. Accumulation of Echinomycin in tumor. Concentration of echinomycin in breast tumor SUM 159 following single dose i.v. injection (0.1 mg/kg) of liposomal and conventionally formulated echinomycin. n=3/time-point.
In contrast, administration of liposomal echinomycin (Lipo-EM) at the same dose of 0.1 mg/kg achieved a tissue concentration >5 ng/g, which was prolonged for more than 10 hrs following administration (FIG. 6). More importantly, peak drug levels in the liposomal echinomycin-treated group were approximately 6-fold higher than those treated with free echinomycin.

[5] = tested on: human ETP-ALL-1 cells; assay: ETP-ALL xenograft model, human CD45+ cells in blood by FACS; assay type: in vivo, NSG mice; conditions: echinomycin in PBS 0.1 mg/kg x15 doses; Lipo-EM 0.35 mg/kg x10 doses; blood days 34, 50, 65
Experimental: FIG. 8. Liposomal echinomycin eliminates human ETP-ALL cells in a xenograft mouse model. (Panel A) Dosing regimen of liposomal echinomycin treatment for ETP-ALL humanized mice for data in panel B. Day 0 indicates day of transplantation with human ETP-ALL-1 cells. Green arrows represent one individual liposomal echinomycin injection (0.35 mg/kg/injection via i.v.). Red arrows indicate blood tests. (Panel B) NSG mice with 1.3 Gys irradiated were given i.v. injection of 1×10^6 human ETP-ALL-1 cells. Human CD45^+ cells in PBMC of recipients were detected by FACS analysis at day 34 after transplantation. The percentage of human CD45^+ in PBMC of recipient mice before treatment (Day 34) and after treatment (Day 42, 48, 56, and 64) of mice (vehicle and liposomal echinomycin treatment) was analyzed by FACS analysis. […] The percentage of human CD45^+ in PBMC of recipients after echinomycin treatment (Day 34, 50, and 65) of mice was analyzed by FACS analysis.
To test whether administration of liposomal echinomycin (Lipo-EM) could eliminate human ETP-ALL cells in vivo, Lipo-EM was administered to xenografted ETP-ALL NSG mice according to the dosing schedule outlined in FIG. 8, panel A. Briefly, 1×10^6 ETP ALL-1 cells were transplanted via i.v. injection into 1.3 Gys irradiated NSG mice. […] The percentage of human ETP ALL-1 cells was monitored after treatment. […]

[6] = tested on: SUM159 cells; assay: MTT cell viability assay, SUM 159; assay type: cell-based; conditions: Homo sapiens, 48 hrs, read-out: IC50 (number of live cells)
Experimental: (§1) FIG. 9. Echinomycin reduced the number of live breast cancer cells in vitro. Breast cancer cells with high (SUM 159) or low (MCF7) levels of HIF-1α were treated with various concentrations of echinomycin in vitro. The correlation between echinomycin concentration and relative proportions of surviving cells after co-culturing with echinomycin is shown. SUM 159 cells with high HIF-1α are more sensitive to echinomycin than MCF7, which express less HIF-1α.
(§2) To better understand the importance of high HIF-1α expression in breast cancer cells, the ability of echinomycin to reduce survival of breast cancer cells was tested in two breast cancer cell lines, MCF7 and SUM 159. More specifically, MCF7 and SUM 159 were treated with different concentrations of echinomycin for 48 hrs, followed by MTT assays to measure cell viability thereafter.

[7] = tested on: MCF7 cells; assay: MTT cell viability assay, MCF7; assay type: cell-based, human; conditions: 48 hrs, compared with SUM159
Experimental: as §1, §2

[8] = tested on: SUM159 breast cancer cells; assay: SUM159 breast cancer xenograft efficacy; assay type: in vivo, NSG mice; conditions: 0.1 mg/kg i.v. once every 3 days, 6 doses
Experimental: FIG. 11. Therapeutic effect of liposomal echinomycin on breast cancer in vivo. (Panel A) Female NSG mice were xenografted with human SUM159 breast cancer cells and treated with free echinomycin or vehicle (n=10 per group). Mice received 0.1 mg/kg of free echinomycin or vehicle via i.v. injection once every 3 days starting on day 28 for a total of 6 doses. Growth kinetics of SUM159 are shown. (Panel B) Female NSG mice were xenografted with SUM159 breast cancer cells and treated with liposomal echinomycin or vehicle (n=5 per group). The growth kinetics of SUM159 in recipient mice treated with vehicle and liposomal echinomycin are shown. Mice received 0.35 mg/kg of liposomal echinomycin or vehicle by i.v. injection on days 9, 11, 13, 25 and 27. Average tumor volume was recorded throughout the experiment. Error bars represent ±SEM. Individual treatments and dosage are denoted by asterisks. (Panel C) Mice were euthanized, and tumors were dissected and photographed. […] Weight is expressed as average weight ±s.d., P value was calculated by t test.
To test the therapeutic efficacy of free echinomycin (in PBS), Lipo-EM, and vehicle in breast cancer cells in vivo, SUM159 cells were xenografted in the mammary fat pad of NOD-SCID mice. […] In addition, Growth kinetics of the transplanted tumors were measured by volume (FIG. 11, panel B) and by weight (FIG. 11, panel C and panel D). […]

[9] = cited from earlier work

SMILES: CS[C@H]1SC[C@H]2C(=O)N(C)[C@@H](C(C)C)C(=O)OC[C@@H](NC(=O)c3cnc4ccccc4n3)C(=O)N[C@@H](C)C(=O)N(C)[C@@H]1C(=O)N(C)[C@@H](C(C)C)C(=O)OC[C@@H](NC(=O)c1cnc3ccccc3n1)C(=O)N[C@@H](C)C(=O)N2C [free echinomycin, Echinomycin]
- survival (in words) [1]: died within a week
- LD50 [2]: 0.629 mg/kg
- time point at which plasma concentration >1 ng/ml is achieved (only) [3]: 15 min
- time point at which tumor concentration >5 ng/g is achieved (only) [4]: 2 h
- growth of ETP-ALL-1 cells in recipients (comparison study) [5]: did inhibit the growth rate of ETP-ALL-1 cells
- IC50 [6]: 1 nM
- sensitivity to echinomycin [7]: less sensitive
- tumor size vs vehicle control [8]: no significant differences in tumor size
- solubility in ethanol, alkalis, ketones, acetic acid and chloroform [9]: soluble
- solubility in water ([9]; water): insoluble
